# Results taken from paper PMC11432405, “Development of Novel Alaninamide Derivatives with Anticonvulsant Activity and Favorable Safety Profiles in Animal Models” (International Journal of Molecular Sciences, 2024).
# Like-named read-outs stand apart in the source and are kept apart here.
# Legend:
# motor coordination [1] = conditions: cited from earlier work
# 6 Hz (32 mA) seizures [2] = conditions: cited from earlier work; for PI (TD50/ED50) 6 Hz: TD50 rotarod / ED50 6 Hz (32 mA)
# 6 Hz (44 mA) seizures = conditions: TD50 rotarod / ED50 6 Hz (44 mA); cited from earlier work
# [3] = tested on: maximal electroshock (MES) seizures; conditions: TD50 rotarod / ED50 MES; cited from earlier work
# human recombinant MAO-B = biological target: T1, human recombinant MAO-B (Homo sapiens, UniProt P27338); assay: fluorometric monoamine oxidase B inhibition assay; type: biochemical; conditions: for % inhibition MAO-B (1 µM): mean of two independent experiments; for inhibition at 1 µM: read-out: % inhibition MAO-B (1 µM), mean of two independent experiments
# T1 construct: purchased Sigma Aldrich
# T1 sequence (P27338 1-520): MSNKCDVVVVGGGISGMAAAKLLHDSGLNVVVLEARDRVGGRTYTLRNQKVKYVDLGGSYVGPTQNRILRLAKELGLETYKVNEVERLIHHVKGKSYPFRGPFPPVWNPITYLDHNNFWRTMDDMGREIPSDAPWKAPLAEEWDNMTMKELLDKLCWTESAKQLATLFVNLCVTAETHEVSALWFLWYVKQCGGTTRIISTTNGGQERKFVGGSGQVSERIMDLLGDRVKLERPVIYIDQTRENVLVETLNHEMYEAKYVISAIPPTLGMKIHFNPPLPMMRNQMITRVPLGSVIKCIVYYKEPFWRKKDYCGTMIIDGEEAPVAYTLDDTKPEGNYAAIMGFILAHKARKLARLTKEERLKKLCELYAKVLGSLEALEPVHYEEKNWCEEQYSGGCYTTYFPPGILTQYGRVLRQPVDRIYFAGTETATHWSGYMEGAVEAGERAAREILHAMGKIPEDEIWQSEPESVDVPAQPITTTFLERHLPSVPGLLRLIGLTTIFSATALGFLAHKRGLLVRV
# motor coordination [4] = assay: rotarod test (acute neurological toxicity, motor coordination); type: in vivo; conditions: mice i.p., 0.5 h
# Description: (§2) The protective indexes (PIs) were then calculated as the ratio of TD50 to ED50 (PI = TD50/ED50), providing an assessment of the therapeutic window for each compound.
# [5] = tested on: maximal electroshock (MES) seizures; assay: maximal electroshock seizure (MES) test; type: in vivo, mice; conditions: for PI (TD50/ED50) MES: TD50 rotarod / ED50 MES; for protection (efficacy) in the MES screening / ED50 MES / MES test: number of mice protected / number of mice tested / responders at 100 mg/kg / ED50: mice i.p.; for ED50 MES / ED50: TPE 0.5 h, 95% confidence interval in parentheses; for responders at 100 mg/kg / ED50: Mus musculus, ip
# Description: Epilepsy is a multifaceted disorder with often unclear etiology, making it challenging to pinpoint a specific receptor or transporter as the definitive target. Consequently, the discovery of ASMs deviates from the traditional drug development pathway, which typically involves designing a new molecule, docking it with a specific biological target, and performing chemical synthesis, followed by in vitro assays. Instead, numerous animal seizure models, which mirror various types of human epileptic seizures, are initially employed in the process of new ASM discovery. This approach has been instrumental in the identification and introduction into clinical practice of all currently used ASMs and continues to be a cornerstone in the preclinical development of new anticonvulsants. The primary justification for prioritizing in vivo screening over in vitro binding and functional studies is the complex and often not fully elucidated mechanisms of action of known ASMs. This approach also facilitates the discovery of compounds with novel, previously undefined pharmacodynamic properties. In light of this, we evaluated all compounds obtained in the current studies using the MES test, which remains one of the most valuable preclinical screening models for tonic-clonic seizures, as well as partial convulsions with or without secondary generalization in humans. This test allows for a comprehensive assessment of the anticonvulsant efficacy of new ASM candidates and is considered highly relevant for predicting their therapeutic efficacy in human epilepsy. The MES test was carried out in mice following the intraperitoneal (i.p.) administration of a screening dose of 100 mg/kg in a group consisting of four animals. The efficacy of the compounds synthesized was evaluated at 0.5 h pretreatment time.
# Fresh solutions were prepared daily for each experimentation session.
# Each group consisted of six animals.
# 6 Hz (32 mA) seizures [6] = assay: 6 Hz (32 mA) psychomotor seizure model; conditions: for PI (TD50/ED50) 6 Hz: TD50 rotarod / ED50 6 Hz (32 mA); for protection (efficacy) in the 6 Hz (32 mA) screening / ED50 6 Hz (32 mA) / 6 Hz (32 mA) test: number of mice protected / number of mice tested: mice i.p.; for protection (efficacy) in the 6 Hz (32 mA) screening: 100 mg/kg, four mice; for protection (efficacy) in the 6 Hz (32 mA) screening / ED50 / responders at 100 mg/kg: 0.5 h; for ED50 6 Hz (32 mA): TPE 0.5 h, 95% confidence interval in parentheses; for 6 Hz (32 mA) test: number of mice protected / number of mice tested: dose of 100 mg/kg, pretreatment time 0.5 h; for ED50 / responders at 100 mg/kg: Mus musculus, ip; for ED50: read-out: ED50 6 Hz (32 mA), mice i.p., TPE 0.5 h, 95% confidence interval in parentheses; for responders at 100 mg/kg: read-out: protection (efficacy) in the 6 Hz (32 mA) screening;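 on all read-outs here: adult male albino Swiss CD-1 mice, each used once, with compounds suspended in 1% Tween 80 in water as vehicle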
# [7] = rotarod test (acute neurological toxicity, motor coordination); type: in vivo; conditions: male, CD-1 (albino Swiss), mouse, in vivo, ip, mice i.p.
# Description: as §2
# HepG2 cells = assay: hepatocytotoxicity MTT viability assay; type: cell-based, human; conditions: 24 h
# Description: (§1) To evaluate selected compounds’ hepatocytotoxicity and neurocytotoxicity, a human hepatocellular carcinoma cell line, HepG2 (ATCC® HB-8065™), and a human neuroblastoma cell line, SH-SY5Y (ATCC®, CRL-2266™), were used. Both cell lines were cultured in standard culture conditions (5% CO2, 37 °C, 95% humidity) using Dulbecco′s Modified Eagle′s—Medium (DMEM; Gibco, Thermo Scientific, Waltham, MA, USA) supplemented with 10% (vol/vol) fetal bovine serum (FBS; Gibco, Thermo Scientific, Waltham, MA, USA) and an antibiotic mixture (Penicillin, Streptomycin, Amphotericin B; Gibco, Thermo Scientific, Waltham, MA, USA). Cells were cultured with compounds 5, […], or 39 (1–50 µM) for 24 h and then an MTT (3-(4,5-dimethylthiazol-2-yl)-2,5diphenyltetrazolium bromide, Sigma-Aldrich, St. Louis, MO, USA) viability assay was performed. The formazan crystals were dissolved in DMSO (Sigma-Aldrich, St. Louis, MO, USA), and the absorbance at 570 nm was measured using a microplate reader (SpectraMax® iD3, Molecular Devices, San Jose, CA, USA). The experiment was performed three times in duplicate. Each bar represents the mean (±SEM) percentage of viable cells in comparison to the control (defined as 100% and represented by untreated cells).
# Figure 2 The viability of HepG2 cells incubated in the presence of 5, 17, and 39. HepG2 cells were exposed to growing concentrations (1–50 µM) of tested compounds for 24 h. Cell viability was measured using an MTT assay. Bars represent mean percent of cell viability normalized to non-treated cells (100%) ± SEM. The doxorubicin was tested as a positive control.
# SH-SY5Y cells = assay: neurocytotoxicity MTT viability assay; type: cell-based, human; conditions: 1–50 µM, 24 h
# Description: as §1
# Figure 3 The viability of SH-SY5Y cells incubated in the presence of compounds 5, 17, and 39. […] Cell viability was measured using an MTT assay. […]
# [8] = dose of 100 mg/kg, pretreatment time 0.5 h
# [9] = dose of 100 mg/kg, pretreatment time 0.5 h, read-out: MES test: number of mice protected / number of mice tested (converted)
structure (smiles),measurement,setting,value
"C[C@H](C(=O)NCc1ccccc1)N1C(=O)CCC1=O [(R)-AS-1, (R)-N-Benzyl-2-(2,5-Dioxopyrrolidin-1-Yl)Propanamide]",TD50 (rotarod test),"motor coordination [1]; mouse, in vivo, ip",>500 mg/kg
same,PI (TD50/ED50) 6 Hz,6 Hz (32 mA) seizures [2],> 32.0
same,PI (TD50/ED50) 6 Hz (44 mA),6 Hz (44 mA) seizures,>12.0
same,PI (TD50/ED50) MES,[3],> 7.5
"CC(C(=O)NCc1ccc(OCc2cccc(F)c2)cc1)N1C(=O)CCC1=O (centres unmarked) [Compound 7, 2-(2,5-dioxopyrrolidin-1-yl)-N-(4-((3-fluorobenzyl)oxy)benzyl)propanamide]",% inhibition MAO-B (1 µM),human recombinant MAO-B,0%
same,TD50 (rotarod test),motor coordination [4],>300 mg/kg
same,PI (TD50/ED50) MES,[5],> 3.8
same,protection (efficacy) in the MES screening,"[5]; 100 mg/kg, 0.5 h, four mice",≤ 25%
same,ED50 MES,[5],78.30 (65.82–93.13) mg/kg
same,MES test: number of mice protected / number of mice tested,[5]; [8],1/4
same,PI (TD50/ED50) 6 Hz,6 Hz (32 mA) seizures [6],> 4.2
same,protection (efficacy) in the 6 Hz (32 mA) screening,6 Hz (32 mA) seizures [6],100%
same,ED50 6 Hz (32 mA),6 Hz (32 mA) seizures [6],71.73 (66.6–77.23) mg/kg
same,6 Hz (32 mA) test: number of mice protected / number of mice tested,6 Hz (32 mA) seizures [6],4/4
"CC(C(=O)NCc1ccc(OCc2ccccc2Cl)cc1)N1C(=O)CCC1=O (centres unmarked) [Compound 9, N-(4-((2-chlorobenzyl)oxy)benzyl)-2-(2,5-dioxopyrrolidin-1-yl)propanamide]",% inhibition MAO-B (1 µM),human recombinant MAO-B,0%
same,TD50 (rotarod test),motor coordination [4],>300 mg/kg
same,PI (TD50/ED50) MES,[5],> 6.3
same,protection (efficacy) in the MES screening,"[5]; 100 mg/kg, 0.5 h, four mice",100%
same,MES test: number of mice protected / number of mice tested,[5]; [8],4/4
same,PI (TD50/ED50) 6 Hz,6 Hz (32 mA) seizures [6],> 5.2
same,protection (efficacy) in the 6 Hz (32 mA) screening,6 Hz (32 mA) seizures [6],75%
same,ED50 6 Hz (32 mA),6 Hz (32 mA) seizures [6],57.69 (33.98–97.94) mg/kg
same,6 Hz (32 mA) test: number of mice protected / number of mice tested,6 Hz (32 mA) seizures [6],3/4
"CC(C(=O)NCc1ccc(OCc2cccc(Cl)c2)cc1)N1C(=O)CCC1=O (centres unmarked) [Compound 10, N-(4-((3-chlorobenzyl)oxy)benzyl)-2-(2,5-dioxopyrrolidin-1-yl)propanamide]",% inhibition MAO-B (1 µM),human recombinant MAO-B,0%
same,TD50 (rotarod test),motor coordination [4],>300 mg/kg
same,PI (TD50/ED50) MES,[5],> 5.9
same,protection (efficacy) in the MES screening,"[5]; 100 mg/kg, 0.5 h, four mice",100%
same,ED50 MES,[5],50.87 (45.29–57.13) mg/kg
same,MES test: number of mice protected / number of mice tested,[5]; [8],4/4
same,PI (TD50/ED50) 6 Hz,6 Hz (32 mA) seizures [6],> 5.0
same,protection (efficacy) in the 6 Hz (32 mA) screening,6 Hz (32 mA) seizures [6],75%
same,ED50 6 Hz (32 mA),6 Hz (32 mA) seizures [6],59.31 (45.54–73.08) mg/kg
same,6 Hz (32 mA) test: number of mice protected / number of mice tested,6 Hz (32 mA) seizures [6],3/4
"CC(C(=O)NCc1ccc(OCc2ccc(OC(F)(F)F)cc2)cc1)N1C(=O)CCC1=O (centres unmarked) [Compound 17, 2-(2,5-dioxopyrrolidin-1-yl)-N-(4-((4-(trifluoromethoxy)benzyl)oxy)benzyl)propanamide]",inhibition at 1 µM,human recombinant MAO-B,0%
same,melting point,,104.1 to 104.8 °C
same,TD50 at 0.5 h,[7],> 300 mg/kg
same,toxic effect on HepG2 cell viability (MTT),HepG2 cells; 1–50 µM,do not exhibit toxic effects
same,toxic effect on SH-SY5Y cell viability (MTT),SH-SY5Y cells,do not exhibit toxic effects
same,responders at 100 mg/kg,"[5]; 100 mg/kg, 0.5 h, four mice, read-out: protection (efficacy) in the MES screening",100%
same,ED50,[5],21 mg/kg
same,responders at 100 mg/kg,[5]; [9],100%
same,ED50,6 Hz (32 mA) seizures [6],77 mg/kg
same,responders at 100 mg/kg,6 Hz (32 mA) seizures [6],75%
"CC(C(=O)NCc1ccc(OCc2ccc(OC(F)(F)F)cc2)cc1)N1CCCC1=O (centres unmarked) [Compound 39, 2-(2-oxopyrrolidin-1-yl)-N-(4-((4-(trifluoromethoxy)benzyl)oxy)benzyl)propanamide]",inhibition at 1 µM,human recombinant MAO-B,0%
same,melting point,,103.4 to 103.9 °C
same,TD50 at 0.5 h,[7],< 300 mg/kg
same,cell viability at higher concentration (MTT),"HepG2 cells; 50 µM, cell line not specified in the sentence (Figures 2 and 3)",statistically significant decrease in cell viability
same,ED50,[5],36.2 mg/kg
same,responders at 100 mg/kg,[5]; [9],100%
same,PI (TD50/ED50) MES,[5],< 8.3
same,ED50,6 Hz (32 mA) seizures [6],37.3 mg/kg
same,responders at 100 mg/kg,6 Hz (32 mA) seizures [6],100%
same,PI (TD50/ED50) 6 Hz,6 Hz (32 mA) seizures [6],< 8.0
"CC[C@@H](C(N)=O)N1CCCC1=O [LEV, levetiracetam]",TD50 (rotarod test),"motor coordination [1]; mice i.p., Table 2",>500 mg/kg
same,TD50 (rotarod test),"motor coordination [1]; mice i.p., Table 3",>500 mg/kg
"CCCC(CCC)C(=O)O [VPA, valproic acid]",PI (TD50/ED50) 6 Hz,6 Hz (32 mA) seizures [2],3.3
same,ED50 6 Hz (32 mA),"6 Hz (32 mA) seizures [2]; mice i.p., TPE 0.5 h (LEV 1.0 h)",130.6 (117.6–145.2) mg/kg
same,PI (TD50/ED50) 6 Hz (44 mA),6 Hz (44 mA) seizures,2.3
same,PI (TD50/ED50) MES,[3],1.7
